Target: T1, SaDHPS (Staphylococcus aureus, UniProt O05701, R204H/P216R)
T1 construct: gene folP
Details: read-out: SaDHPS + SIZ-2FITC / IC50 (ng/mL); tracer SIZ-2FITC; 4 mM DHPPP, 40 mM Mg2+ in reaction buffer, pH 8.0, 37 C, 2 min

In the case of `NS(=O)(=O)c1ccccc1` [BSN], the IC50 is reported as 55.1 nM.
